Measurements from paper PMC5443055 (Human Vaccines & Immunotherapeutics, 2014).

System: splenocytes of immunized HLA DR3 tg mice
Test: Th1/Th2/Th17 cytokine bead array
Assay type: cell-based, mouse (HLA DR3 transgenic)
Conditions: ConA 2 μg/mL, positive control, consistent between arms

In the case of Concanavalin A [ConA], the “IFNγ concentration above background” value (highest of panel) is reported as 260 pg/mL and the “IL-4 concentration above background” value (lowest of panel) is reported as 16 pg/mL.
